Test results as given in patent US8361964B2, “Growth hormone releasing factor (GRF) analogs and uses thereof” (Theratechnologies Inc., priority 2011, dated 2013).
Where a SMILES comes first, the peptide text is derived from it.

Tests used:
Growth Hormone secretion [1] = experiment: Growth Hormone secretion in female mice after subcutaneous GRF analog; type: in vivo; conditions: female CD-1 mice; 10 μg/mouse subcutaneous; plasma 10 minutes after injection
Source text: (§1) CD-1 mice (female, weighting from 20 to 25 g) were obtained from Charles River Inc. Animals were used according to a protocol of the Animal Care Committee along with the principles of the Guide for the Care and Use of Experimental Animals of the Canadian Council on Animal Care. The animals were maintained on standard laboratory chow under a 12:12 light:dark cycle. They were kept in groups of 4 mice per cage.
At the day of the experiment, mice received a subcutaneous injection of GRF analog (10 μg/mouse dissolved in 20 mM sodium acetate (AcONa)+5% mannitol at pH 5). 10 minutes after injection, the mice were anesthezied with isolufrane. Blood samples (500 μl) were obtained by intra-cardiac puncture. Blood was placed into microtainer pre-treated with K3EDTA and immediately centrifuged at 13,000 RPM in a desktop centrifuge for 2 minutes. The plasma was collected and placed into a screwcap Eppendorf™ tube and quick frozen in liquid nitrogen. The samples were then kept at −80° C. until assayed. Determination of GH levels was performed as described below.
(§2) Rat and mouse plasma samples were vortexed carefully and centrifuged at 9,000 RPM for 2 min at 4° C. The dosage of GH levels was performed using the Rat/Mouse Growth Hormone ELISA kit from Millipore (Cat. # EZRMGH-45K). Sample supernatants were first diluted 20-fold with the GH ELISA assay buffer, and 10 μl of this dilution was added to the ELISA plate with 90 μl of GH EIA assay buffer. The remaining of the procedure was performed according to the manufacturer's instructions, and the data obtained were analyzed using GraphPad Prism™ software.
(§3) The GRF analogs described herein were tested for their ability to induce GH release in female mice and rats. […] The data are presented in Tables III (mice) and IV-V (rats).

Growth Hormone secretion [2] = experiment: Growth Hormone secretion in female rats after subcutaneous GRF analog; type: in vivo; conditions: female Sprague-Dawley rats; 10 μg/rat subcutaneous; plasma 0-60 minutes
Source text: as §1, with “Sprague-Dawley rats” for “CD-1 mice”, “250” for “20”, “300” for “25”, “rats” for “mice”
The animals were anesthetized with isoflurane 2.5%. A mid-section opening was made in the neck to expose the carotid artery. The carotid artery was canulated with polypropylene tubing (PE-50) to allow blood withdrawal. After surgical preparation, rats received a subcutaneous injection of GRF analog (10 μg/rat dissolved in 20 mM AcONa+5% mannitol at pH 5). For pharmacodynamics studies, blood samples (400 μL) were collected from 4 to 8 animals per group per time point. Blood samples (400 μl) were collected via the carotid catheter at 0, 10, 20, 30, 45 and 60 minutes after drug injection. Blood was placed into microtainer pre-treated with K3EDTA and immediately centrifuged at 13,000 RPM in a desktop centrifuge for 2 minutes. The plasma was collected and placed into a screw cap Eppendorf™ and quick frozen in liquid nitrogen. The samples were then kept at −80° C. until assayed. Determination of GH levels was performed as described below.
as §2, §3

Compound	GH levels 10 min (Growth Hormone secretion [1])	Mean AUC (GH Area Under the curve, GH concentration over time) (Growth Hormone secretion [2])	Mean Cmax (ng/ml) of Growth Hormone secretion (Growth Hormone secretion [2])
CC[C@H](C)[C@H](NC(=O)[C@H](C)NC(=O)[C@H](CC(=O)O)NC(=O)[C@@H](C)NC(=O)[C@@H](N)Cc1ccc(O)cc1)C(=O)N[C@@H](Cc1ccccc1)C(=O)N[C@H](C(=O)N[C@@H](CC(=O)O)C(=O)N[C@@H](CO)C(=O)N[C@@H](Cc1ccc(O)cc1)C(=O)N[C@@H](CCCNC(=N)N)C(=O)N[C@@H](CCCCN)C(=O)N[C@H](C(=O)N[C@@H](CC(C)C)C(=O)N[C@@H](C)C(=O)N[C@@H](CCC(N)=O)C(=O)N[C@@H](CC(C)C)C(=O)N[C@@H](CCCN)C(=O)N[C@@H](C)C(=O)N[C@@H](CCCNC(=N)N)C(=O)N[C@@H](CCC(N)=O)C(=O)N[C@@H](CC(=O)O)C(=O)N[C@H](C(=O)N[C@@H](CC(C)C)C(=O)N[C@@H](CO)C(=O)N[C@H](CCCNC(=N)N)C(N)=O)[C@@H](C)CC)C(C)C)[C@@H](C)O [SEQ ID NO: 23, Y-a-D-A-I-F-T-D-S-Y-R-K-V-L-A-Q-L-O-A-R-Q-D-I-L-S-r-NH2] (HELM PEPTIDE1{Y.[dA].D.A.I.F.T.D.S.Y.R.K.V.L.A.Q.L.[Orn].A.R.Q.D.I.L.S.[dR].[am]}$$$$V2.0)	269.9 ng/mL		
CC/C=C/CC(=O)N[C@@H](Cc1ccc(O)cc1)C(=O)N[C@@H](C)C(=O)N[C@@H](CC(=O)O)C(=O)N[C@@H](C)C(=O)N[C@H](C(=O)N[C@@H](Cc1ccccc1)C(=O)N[C@H](C(=O)N[C@@H](CC(=O)O)C(=O)N[C@@H](CO)C(=O)N[C@@H](Cc1ccc(O)cc1)C(=O)N[C@@H](CCCNC(=N)N)C(=O)N[C@@H](CCCCN)C(=O)N[C@H](C(=O)N[C@@H](CC(C)C)C(=O)N[C@@H](C)C(=O)N[C@@H](CCC(N)=O)C(=O)N[C@@H](CC(C)C)C(=O)N[C@@H](CCCN)C(=O)N[C@@H](C)C(=O)N[C@@H](CCCNC(=N)N)C(=O)N[C@@H](CCC(N)=O)C(=O)N[C@@H](CC(=O)O)C(=O)N[C@H](C(=O)N[C@@H](CC(C)C)C(=O)N[C@@H](CO)C(=O)N[C@H](CCCNC(=N)N)C(N)=O)[C@@H](C)CC)C(C)C)[C@@H](C)O)[C@@H](C)CC [SEQ ID NO: 24, Trans-3-hexenoyl-Y-A-D-A-I-F-T-D-S-Y-R-K-V-L-A-Q-L-O-A-R-Q-D-I-L-S-r-NH2] (HELM PEPTIDE1{[CC/C=C/CC(=O)[*:2]].Y.A.D.A.I.F.T.D.S.Y.R.K.V.L.A.Q.L.[Orn].A.R.Q.D.I.L.S.[dR].[am]}$$$$V2.0)	332.6 ng/mL		
H-YLDAIFTDSYRKVLAQLKARQDILARAARAAR-NH2 [SEQ ID NO: 35, YLDAIFTDSYRKVLAQLKARQDILARAARAAR-NH2]		9144	376.9 ng/mL
CC[C@H](C)[C@H](NC(=O)[C@H](C)NC(=O)[C@H](CC(=O)O)NC(=O)[C@@H](C)NC(=O)[C@@H](N)Cc1ccc(O)cc1)C(=O)N[C@@H](Cc1ccccc1)C(=O)N[C@H](C(=O)N[C@@H](CC(=O)O)C(=O)N[C@@H](CO)C(=O)N[C@@H](Cc1ccc(O)cc1)C(=O)N[C@@H](CCCNC(=N)N)C(=O)N[C@@H](CCCCN)C(=O)N[C@H](C(=O)N[C@@H](CC(C)C)C(=O)N[C@@H](C)C(=O)N[C@@H](CCC(N)=O)C(=O)N[C@@H](CC(C)C)C(=O)N[C@@H](CCCCN)C(=O)N[C@@H](C)C(=O)N[C@@H](CCCNC(=N)N)C(=O)N[C@@H](CCC(N)=O)C(=O)N[C@@H](CC(=O)O)C(=O)N[C@@H](CC(C)C)C(=O)N[C@@H](CC(C)C)C(=O)N[C@@H](CO)C(=O)N[C@H](CCCNC(=N)N)C(N)=O)C(C)C)[C@@H](C)O [SEQ ID NO: 25, Y-a-DAIFTDSYRKVLAQLKARQDLLS-r-NH2] (HELM PEPTIDE1{Y.[dA].D.A.I.F.T.D.S.Y.R.K.V.L.A.Q.L.K.A.R.Q.D.L.L.S.[dR].[am]}$$$$V2.0)	144.1 ng/mL		
